Assay results as given in patent publication US8758816B2, “Compositions comprising azelastine and methods of use thereof” (priority 2004, dated 2014).

Tested on: patients with seasonal allergic rhinitis (SAR)
Assay: MP 428 study: individual symptom severity scores (runny nose, itchy nose, sneezing, congestion; 0-3 scale)
Format: in vivo, human
Conditions: Intent-to-Treat Population
Experimental: A two-week, randomized, double-blind study, which evaluated the effects of the co-administration of ASTELIN® (azelastine hydrochloride (HCl)) and FLONASE® (fluticasone propionate) compared to either product alone in patients with seasonal allergic rhinitis (SAR) was conducted during the 2006 Texas mountain cedar season. After a 5-day placebo lead-in period, 151 patients with moderate-to-severe allergic rhinitis symptoms were randomized to either: (1) (49 total patients) ASTELIN® (azelastine hydrochloride (HCl)) plus placebo saline nasal spray 2 sprays per nostril, 15 minutes apart, twice daily (AM & PM); (2) (50 total patients) FLONASE® (fluticasone propionate) plus placebo saline nasal spray, 2 sprays per nostril, 15 minutes apart, once daily (AM) and two sessions of placebo saline nasal spray, 2 sprays per nostril, 15 minutes apart (PM); or (3) (52 total patients) the co-administration of ASTELIN® (azelastine hydrochloride (HCl)) 2 sprays per nostril plus FLONASE® (fluticasone propionate) 2 sprays per nostril (AM), 15 minutes apart, and ASTELIN® (azelastine hydrochloride (HCl)) 2 sprays per nostril plus placebo saline nasal spray, 15 minutes apart, (PM) for a 2-week double-blind treatment period.
The primary efficacy variable was the change from baseline in the Total Nasal Symptom Score (TNSS), which comprised sneezing, itchy nose, runny nose, and nasal congestion (individual symptoms scores were assigned a value between 0 and 3, where 0=no symptoms and 3=severe symptoms). This study was not statistically designed to assess the differences between ASTELIN® and FLONASE®.
The results of the clinical trial are summarized and presented in Appendix A hereinbelow and in FIGS. 1-6. […] FIGS. 2-5 show the mean improvement in severity score (0-3 scale) from baseline for the symptoms of runny nose, itchy nose, sneezing and congestion, respectively.

CCC(=O)O[C@]1(C(=O)SCF)[C@H](C)C[C@H]2[C@@H]3C[C@H](F)C4=CC(=O)C=C[C@]4(C)[C@@]3(F)[C@@H](O)C[C@@]21C [Fluticasone, fluticasone propionate]
Percent Change from Baseline in AM and PM Combined Nasal Symptom Score: Congestion, LS Mean (Day 5): −18.74%
Percent Change from Baseline in AM and PM Combined Nasal Symptom Score: Congestion, Mean (Day 5): −19.38%
Percent Change from Baseline in AM and PM Combined Nasal Symptom Score: Congestion, Median (Day 5): −14.29%
Percent Change from Baseline in AM and PM Combined Nasal Symptom Score: Itchy Nose, LS Mean (Day 5): −25.02%
Percent Change from Baseline in AM and PM Combined Nasal Symptom Score: Itchy Nose, Mean (Day 5): −24.64%
Percent Change from Baseline in AM and PM Combined Nasal Symptom Score: Itchy Nose, Median (Day 5): −25.00%
Percent Change from Baseline in AM and PM Combined Nasal Symptom Score: Runny Nose, LS Mean (Day 5): −22.06%
Percent Change from Baseline in AM and PM Combined Nasal Symptom Score: Runny Nose, Mean (Day 5): −22.31%
Percent Change from Baseline in AM and PM Combined Nasal Symptom Score: Runny Nose, Median (Day 5): −21.31%
Percent Change from Baseline in AM and PM Combined Nasal Symptom Score: Sneezing, LS Mean (Day 5): −35.40%
Percent Change from Baseline in AM and PM Combined Nasal Symptom Score: Sneezing, Mean (Day 5): −34.14%
Percent Change from Baseline in AM and PM Combined Nasal Symptom Score: Sneezing, Median (Day 5): −33.33%
Change from Baseline in AM and PM Combined Nasal Symptom Score: Congestion, LS Mean (Day 6): −1.03
Change from Baseline in AM and PM Combined Nasal Symptom Score: Congestion, Mean (Day 6): −1.10
Change from Baseline in AM and PM Combined Nasal Symptom Score: Congestion, Median (Day 6): −0.83
Change from Baseline in AM and PM Combined Nasal Symptom Score: Itchy Nose, LS Mean (Day 6): −1.21
Change from Baseline in AM and PM Combined Nasal Symptom Score: Itchy Nose, Mean (Day 6): −1.21
Change from Baseline in AM and PM Combined Nasal Symptom Score: Itchy Nose, Median (Day 6): −1.00
Change from Baseline in AM and PM Combined Nasal Symptom Score: Runny Nose, LS Mean (Day 6): −1.35
Change from Baseline in AM and PM Combined Nasal Symptom Score: Runny Nose, Mean (Day 6): −1.35
Change from Baseline in AM and PM Combined Nasal Symptom Score: Runny Nose, Median (Day 6): −1.00
Change from Baseline in AM and PM Combined Nasal Symptom Score: Sneezing, LS Mean (Day 6): −1.51
Change from Baseline in AM and PM Combined Nasal Symptom Score: Sneezing, Mean (Day 6): −1.44
Change from Baseline in AM and PM Combined Nasal Symptom Score: Sneezing, Median (Day 6): −1.27
Percent Change from Baseline in AM and PM Combined Nasal Symptom Score: Congestion, LS Mean (Day 6): −19.32%
Percent Change from Baseline in AM and PM Combined Nasal Symptom Score: Congestion, Mean (Day 6): −20.16%
Percent Change from Baseline in AM and PM Combined Nasal Symptom Score: Congestion, Median (Day 6): −14.29%
Percent Change from Baseline in AM and PM Combined Nasal Symptom Score: Itchy Nose, LS Mean (Day 6): −27.12%
Percent Change from Baseline in AM and PM Combined Nasal Symptom Score: Itchy Nose, Mean (Day 6): −26.87%
Percent Change from Baseline in AM and PM Combined Nasal Symptom Score: Itchy Nose, Median (Day 6): −24.76%
Percent Change from Baseline in AM and PM Combined Nasal Symptom Score: Runny Nose, LS Mean (Day 6): −22.60%
Percent Change from Baseline in AM and PM Combined Nasal Symptom Score: Runny Nose, Mean (Day 6): −22.47%
Percent Change from Baseline in AM and PM Combined Nasal Symptom Score: Runny Nose, Median (Day 6): −18.64%
Percent Change from Baseline in AM and PM Combined Nasal Symptom Score: Sneezing, LS Mean (Day 6): −32.10%
Percent Change from Baseline in AM and PM Combined Nasal Symptom Score: Sneezing, Mean (Day 6): −31.22%
Percent Change from Baseline in AM and PM Combined Nasal Symptom Score: Sneezing, Median (Day 6): −32.77%
Change from Baseline in AM and PM Combined Nasal Symptom Score: Congestion, LS Mean (Day 7): −1.03
Change from Baseline in AM and PM Combined Nasal Symptom Score: Congestion, Mean (Day 7): −1.10
Change from Baseline in AM and PM Combined Nasal Symptom Score: Congestion, Median (Day 7): −1.08
Change from Baseline in AM and PM Combined Nasal Symptom Score: Itchy Nose, LS Mean (Day 7): −1.30
Change from Baseline in AM and PM Combined Nasal Symptom Score: Itchy Nose, Mean (Day 7): −1.27
Change from Baseline in AM and PM Combined Nasal Symptom Score: Itchy Nose, Median (Day 7): −1.00
Change from Baseline in AM and PM Combined Nasal Symptom Score: Runny Nose, LS Mean (Day 7): −1.28
Change from Baseline in AM and PM Combined Nasal Symptom Score: Runny Nose, Mean (Day 7): −1.31
Change from Baseline in AM and PM Combined Nasal Symptom Score: Runny Nose, Median (Day 7): −1.45
Change from Baseline in AM and PM Combined Nasal Symptom Score: Sneezing, LS Mean (Day 7): −1.44
Change from Baseline in AM and PM Combined Nasal Symptom Score: Sneezing, Mean (Day 7): −1.33
Change from Baseline in AM and PM Combined Nasal Symptom Score: Sneezing, Median (Day 7): −1.20
Percent Change from Baseline in AM and PM Combined Nasal Symptom Score: Congestion, LS Mean (Day 7): −19.42%
Percent Change from Baseline in AM and PM Combined Nasal Symptom Score: Congestion, Mean (Day 7): −20.17%
Percent Change from Baseline in AM and PM Combined Nasal Symptom Score: Congestion, Median (Day 7): −21.31%
Percent Change from Baseline in AM and PM Combined Nasal Symptom Score: Itchy Nose, LS Mean (Day 7): −27.79%
Percent Change from Baseline in AM and PM Combined Nasal Symptom Score: Itchy Nose, Mean (Day 7): −26.92%
Percent Change from Baseline in AM and PM Combined Nasal Symptom Score: Itchy Nose, Median (Day 7): −23.55%
Percent Change from Baseline in AM and PM Combined Nasal Symptom Score: Runny Nose, LS Mean (Day 7): −18.01%
Percent Change from Baseline in AM and PM Combined Nasal Symptom Score: Runny Nose, Mean (Day 7): −18.63%
Percent Change from Baseline in AM and PM Combined Nasal Symptom Score: Runny Nose, Median (Day 7): −28.99%
Percent Change from Baseline in AM and PM Combined Nasal Symptom Score: Sneezing, LS Mean (Day 7): −31.86%
Percent Change from Baseline in AM and PM Combined Nasal Symptom Score: Sneezing, Mean (Day 7): −30.14%
Percent Change from Baseline in AM and PM Combined Nasal Symptom Score: Sneezing, Median (Day 7): −31.32%
Change from Baseline in AM and PM Combined Nasal Symptom Score: Congestion, LS Mean (Day 8): −0.94
Change from Baseline in AM and PM Combined Nasal Symptom Score: Congestion, Mean (Day 8): −0.98
Change from Baseline in AM and PM Combined Nasal Symptom Score: Congestion, Median (Day 8): −0.83
Change from Baseline in AM and PM Combined Nasal Symptom Score: Itchy Nose, LS Mean (Day 8): −1.33
Change from Baseline in AM and PM Combined Nasal Symptom Score: Itchy Nose, Mean (Day 8): −1.29
Change from Baseline in AM and PM Combined Nasal Symptom Score: Itchy Nose, Median (Day 8): −1.15
Change from Baseline in AM and PM Combined Nasal Symptom Score: Runny Nose, LS Mean (Day 8): −0.95
Change from Baseline in AM and PM Combined Nasal Symptom Score: Runny Nose, Mean (Day 8): −0.98
Change from Baseline in AM and PM Combined Nasal Symptom Score: Runny Nose, Median (Day 8): −0.73
Change from Baseline in AM and PM Combined Nasal Symptom Score: Sneezing, LS Mean (Day 8): −1.41
Change from Baseline in AM and PM Combined Nasal Symptom Score: Sneezing, Mean (Day 8): −1.29
Change from Baseline in AM and PM Combined Nasal Symptom Score: Sneezing, Median (Day 8): −1.25
Percent Change from Baseline in AM and PM Combined Nasal Symptom Score: Congestion, LS Mean (Day 8): −17.55%
Percent Change from Baseline in AM and PM Combined Nasal Symptom Score: Congestion, Mean (Day 8): −17.88%
Percent Change from Baseline in AM and PM Combined Nasal Symptom Score: Congestion, Median (Day 8): −14.29%
Percent Change from Baseline in AM and PM Combined Nasal Symptom Score: Itchy Nose, LS Mean (Day 8): −28.16%
Percent Change from Baseline in AM and PM Combined Nasal Symptom Score: Itchy Nose, Mean (Day 8): −27.33%
Percent Change from Baseline in AM and PM Combined Nasal Symptom Score: Itchy Nose, Median (Day 8): −30.22%
Percent Change from Baseline in AM and PM Combined Nasal Symptom Score: Runny Nose, LS Mean (Day 8): −11.82%
Percent Change from Baseline in AM and PM Combined Nasal Symptom Score: Runny Nose, Mean (Day 8): −12.38%
Percent Change from Baseline in AM and PM Combined Nasal Symptom Score: Runny Nose, Median (Day 8): −14.29%
Percent Change from Baseline in AM and PM Combined Nasal Symptom Score: Sneezing, LS Mean (Day 8): −28.16%
Percent Change from Baseline in AM and PM Combined Nasal Symptom Score: Sneezing, Mean (Day 8): −26.04%
Percent Change from Baseline in AM and PM Combined Nasal Symptom Score: Sneezing, Median (Day 8): −31.03%
